From patent US20200361895A1, “NOVEL SULFONAMIDE CARBOXAMIDE COMPOUNDS” (Inflazome Limited, priority 2017, published 2020)
Counter-ions that a name gives are not always drawn.

How the values were obtained:
NLRP3 [1] = target: T1, NLRP3 (Homo sapiens, UniProt Q96P20); experiment: THP-1 cells pyroptosis assay (LPS + nigericin, resazurin readout; THP IC50); assay type: cell-based; set-up: Seed THP-1 cells (25,000 cells/well) containing 1.0 μg/ml LPS in 40 μl of RPMI medium; host or cells: THP-1 cells
T1 sequence (Q96P20 whole entry): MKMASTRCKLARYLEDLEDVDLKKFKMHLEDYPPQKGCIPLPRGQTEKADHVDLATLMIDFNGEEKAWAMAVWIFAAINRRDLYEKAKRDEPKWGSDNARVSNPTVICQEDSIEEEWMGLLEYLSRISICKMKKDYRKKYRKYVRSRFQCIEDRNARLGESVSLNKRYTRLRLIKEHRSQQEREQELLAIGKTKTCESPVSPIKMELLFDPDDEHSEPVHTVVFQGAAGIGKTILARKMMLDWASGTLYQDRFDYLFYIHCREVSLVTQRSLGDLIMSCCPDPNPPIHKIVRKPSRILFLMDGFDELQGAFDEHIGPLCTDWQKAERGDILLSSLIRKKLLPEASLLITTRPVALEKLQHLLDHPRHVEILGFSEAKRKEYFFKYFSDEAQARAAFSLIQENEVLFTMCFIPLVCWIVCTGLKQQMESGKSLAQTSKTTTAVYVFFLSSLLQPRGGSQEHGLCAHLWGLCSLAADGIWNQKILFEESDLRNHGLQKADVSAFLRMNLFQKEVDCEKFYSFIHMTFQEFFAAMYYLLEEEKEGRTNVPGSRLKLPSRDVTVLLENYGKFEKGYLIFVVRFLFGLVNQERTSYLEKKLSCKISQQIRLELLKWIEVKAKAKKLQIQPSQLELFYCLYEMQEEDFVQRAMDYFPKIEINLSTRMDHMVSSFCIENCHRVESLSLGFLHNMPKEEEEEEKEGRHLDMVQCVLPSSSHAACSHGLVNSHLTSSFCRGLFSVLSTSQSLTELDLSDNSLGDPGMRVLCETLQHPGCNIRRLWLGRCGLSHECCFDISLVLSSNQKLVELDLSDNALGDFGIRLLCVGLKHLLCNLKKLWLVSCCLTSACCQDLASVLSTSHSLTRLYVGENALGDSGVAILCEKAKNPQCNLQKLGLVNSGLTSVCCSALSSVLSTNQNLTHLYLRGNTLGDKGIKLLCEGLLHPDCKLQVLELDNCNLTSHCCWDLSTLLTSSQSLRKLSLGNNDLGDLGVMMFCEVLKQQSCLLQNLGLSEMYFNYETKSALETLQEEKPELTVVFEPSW
Method in brief: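 IC50 from 4-parameter fit of resazurin fluorescence (100 μM, 1-2 hrs), reflecting surviving cells after pyroptosis. LPS-primed (1 μg/ml) THP-1 cells in FBS-free RPMI got compound for 3 hrs at 37° C (top 10 μM, half-log, 8 points), then nigericin 5 μM for 1 hr.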

NLRP3 [2] = target: T1, NLRP3; experiment: Human whole blood IL1β release assay (LPS + nigericin, AlphaLisa IL-1β; HWB IC50); assay type: cell-based; set-up: Human whole blood in Li-heparin tubes was obtained from healthy donors from a volunteer donor panel; from tissue; host or cells: human whole blood from healthy donors; conditions: IL-1β release
Method in brief: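 IL-1β in plasma supernatant quantified by AlphaLisa after nigericin (10 μM final, 1 h, 37 °C) triggering of human whole blood that had been preincubated 3 h with LPS (1 μg/ml) plus compound (half-log, 8 points, from 10 μM). IC50 by variable-slope four-parameter regression.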

| IC50 (NLRP3 [1]) | IC50 (NLRP3 [2]) | SMILES |
| --- | --- | --- |
| ≤ 0.5 µM | ≤ 0.5 µM | COc1cc(-c2ccc3c(c2NC(=O)NS(=O)(=O)c2nn(C4CC4)cc2F)CCC3)ccn1 [Example 305, 1-Cyclopropyl-4-fluoro-N-((5-(2-methoxypyridin-4-yl)-2,3-dihydro-1H-inden-4-yl)carbamoyl)-1H-pyrazole-3-sulfonamide] |
| ≤ 0.5 µM | ≤ 0.5 µM | COc1cc(-c2ccc3c(c2NC(=O)NS(=O)(=O)c2ccn(C(C)(C)CN4CC(F)(F)C4)n2)CCC3)ccn1 [Example 306, 1-(1-(3,3-Difluoroazetidin-1-yl)-2-methylpropan-2-yl)-N-((5-(2-methoxypyridin-4-yl)-2,3-dihydro-1H-inden-4-yl)carbamoyl)-1H-pyrazole-3-sulfonamide] |
| ≤ 0.5 µM | ≤ 0.5 µM | COc1cc(-c2ccc3c(c2NC(=O)NS(=O)(=O)c2ccn(C(C)(C)CN4CC(F)C4)n2)CCO3)ccn1 [Example 307, 1-(1-(3-Fluoroazetidin-1-yl)-2-methylpropan-2-yl)-N-((5-(2-methoxypyridin-4-yl)-2,3-dihydrobenzofuran-4-yl)carbamoyl)-1H-pyrazole-3-sulfonamide] |
| ≤ 0.5 µM | ≤ 1 µM | COc1cc(-c2ccc3c(c2NC(=O)NS(=O)(=O)c2ccc(C(=O)N(C)C)cc2)CCC3)ccn1 [Example 308, 4-(N-((5-(2Mmethoxypyridin-4-yl)-2,3-dihydro-1H-inden-4-yl)carbamoyl)sulfamoyl)-N,N-dimethylbenzamide, sodium salt] |
| ≤ 0.5 µM | ≤ 0.5 µM | [2H]C([2H])([2H])Oc1cc(-c2ccc3c(c2NC(=O)NS(=O)(=O)c2ccc(CN(C)C)cc2)CCC3)ccn1 [Example 310, 4-((Dimethylamino)methyl)-N-((5-(2-(methoxy-d3)pyridin-4-yl)-2,3-dihydro-1H-inden-4-yl)carbamoyl)benzenesulfonamide] |
| ≤ 0.5 µM | ≤ 0.5 µM | COc1cc(-c2ccc3c(c2NC(=O)NS(=O)(=O)c2ccc(CN(C)C)cc2)CCO3)ccn1 [Example 311, 4-((Dimethylamino)methyl)-N-((5-(2-methoxypyridin-4-yl)-2,3-dihydrobenzofuran-4-yl)carbamoyl)benzenesulfonamide] |
| ≤ 0.5 µM | ≤ 0.5 µM | COc1cc(-c2ccc3c(c2NC(=O)NS(=O)(=O)c2ccn(C4(CN5CCC5)CCC4)n2)CCC3)ccn1 [Example 312, 1-(1-(Azetidin-1-ylmethyl)cyclobutyl)-N-((5-(2-methoxypyridin-4-yl)-2,3-dihydro-1H-inden-4-yl)carbamoyl)-1H-pyrazole-3-sulfonamide] |
| ≤ 0.5 µM | ≤ 0.5 µM | COc1cc(-c2ccc3c(c2NC(=O)NS(=O)(=O)c2ccc(CN(C)C)c(C4CC4)c2)CCC3)ccn1 [Example 313, 3-Cyclopropyl-4-((dimethylamino)methyl)-N-((5-(2-methoxypyridin-4-yl)-2,3-dihydro-1H-inden-4-yl)carbamoyl)benzenesulfonamide] |
| ≤ 0.5 µM | ≤ 1 µM | COc1cc(-c2c(C)cc3c(c2NC(=O)NS(=O)(=O)c2ccn(C4CC4)n2)CCC3)ccn1 [Example 314, 1-Cyclopropyl-N-((5-(2-methoxypyridin-4-yl)-6-methyl-2,3-dihydro-1H-inden-4-yl)carbamoyl)-1H-pyrazole-3-sulfonamide] |

Second part, the compound before the results:

| SMILES | IC50 (NLRP3 [1]) | IC50 (NLRP3 [2]) |
| --- | --- | --- |
| [2H]C([2H])([2H])Oc1cc(-c2ccc3c(c2NC(=O)NS(=O)(=O)c2ccn(C4CCC4)n2)CCC3)ccn1 [Example 290, 1-Cyclobutyl-N-((5-(2-(methoxy-d3)pyridin-4-yl)-2,3-dihydro-1H-inden-4-yl)carbamoyl)-1H-pyrazole-3-sulfonamide, sodium salt] | ≤ 0.5 µM | ≤ 0.5 µM |
| CC(C)n1ccc(S(=O)(=O)NC(=O)Nc2c(-c3ccnc(OC4CCOC4)c3)ccc3c2CCC3)n1 (stereo not drawn) [Example 291, 1-Isopropyl-N-((5-(2-((tetrahydrofuran-3-yl)oxy)pyridin-4-yl)-2,3-dihydro-1H-inden-4-yl)carbamoyl)-1H-pyrazole-3-sulfonamide, sodium salt] | ≤ 0.5 µM | ≤ 1 µM |
| CC(C)n1ccc(S(=O)(=O)NC(=O)Nc2c(-c3ccnc(OC4CCOCC4)c3)ccc3c2CCC3)n1 [Example 292, 1-Isopropyl-N-((5-(2-((tetrahydro-2H-pyran-4-yl)oxy)pyridin-4-yl)-2,3-dihydro-1H-inden-4-yl)carbamoyl)-1H-pyrazole-3-sulfonamide, sodium salt] | ≤ 0.5 µM | ≤ 1 µM |
| COc1cc(-c2ccc3c(c2NC(=O)NS(=O)(=O)c2coc(C4CC4)n2)CCC3)ccn1 [Example 293, 2-Cyclopropyl-N-((5-(2-methoxypyridin-4-yl)-2,3-dihydro-1H-inden-4-yl)carbamoyl)oxazole-4-sulfonamide, sodium salt] | ≤ 0.5 µM | ≤ 5 µM |
| CC(C)n1ccc(S(=O)(=O)NC(=O)Nc2c(-c3ccnc(OC4CCC4)c3)ccc3c2CCC3)n1 [Example 294, N-((5-(2-Cyclobutoxypyridin-4-yl)-2,3-dihydro-1H-inden-4-yl)carbamoyl)-1-isopropyl-1H-pyrazole-3-sulfonamide, sodium salt] | ≤ 0.5 µM | ≤ 5 µM |
| CC(C)n1ccc(S(=O)(=O)NC(=O)Nc2c(-c3ccnc(C4CC4)c3)ccc3c2CCC3)n1 [Example 295, N-((5-(2-Cyclopropylpyridin-4-yl)-2,3-dihydro-1H-inden-4-yl)carbamoyl)-1-isopropyl-1H-pyrazole-3-sulfonamide, sodium salt] | ≤ 0.5 µM | ≤ 1 µM |
| COCc1cc(-c2ccc3c(c2NC(=O)NS(=O)(=O)c2ccn(C(C)C)n2)CCC3)ccn1 [Example 296, 1-Isopropyl-N-((5-(2-(methoxymethyl)pyridin-4-yl)-2,3-dihydro-1H-inden-4-yl)carbamoyl)-1H-pyrazole-3-sulfonamide, sodium salt] | ≤ 0.5 µM | ≤ 0.5 µM |
| CC(C)n1ccc(S(=O)(=O)NC(=O)Nc2c(-c3ccnc(CO)c3)ccc3c2CCC3)n1 [Example 298, N-((5-(2-(Hydroxymethyl)pyridin-4-yl)-2,3-dihydro-1H-inden-4-yl)carbamoyl)-1-isopropyl-1H-pyrazole-3-sulfonamide] | ≤ 0.5 µM | ≤ 1 µM |
| CC(C)n1ccc(S(=O)(=O)NC(=O)Nc2c(-c3ccnc(OCCO)c3)ccc3c2CCC3)n1 [Example 299, N-((5-(2-(2-Hydroxyethoxy)pyridin-4-yl)-2,3-dihydro-1H-inden-4-yl)carbamoyl)-1-isopropyl-1H-pyrazole-3-sulfonamide] | ≤ 0.5 µM | ≤ 0.5 µM |
| COCCOc1cc(-c2ccc3c(c2NC(=O)NS(=O)(=O)c2ccn(C(C)C)n2)CCC3)ccn1 [Example 300, 1-Isopropyl-N-((5-(2-(2-methoxyethoxy)pyridin-4-yl)-2,3-dihydro-1H-inden-4-yl)carbamoyl)-1H-pyrazole-3-sulfonamide, sodium salt] | ≤ 0.5 µM | ≤ 1 µM |
| O=C(Nc1c(-c2ccncc2)ccc2c1CCC2)NS(=O)(=O)c1ccn(C2CC2)n1 [Example 303, 1-Cyclopropyl-N-((5-(pyridin-4-yl)-2,3-dihydro-1H-inden-4-yl)carbamoyl)-1H-pyrazole-3-sulfonamide] | ≤ 0.5 µM | ≤ 0.5 µM |
| O=C(Nc1c(-c2ccncc2)ccc2c1CCC2)NS(=O)(=O)c1ccn(C2CCC2)n1 [Example 304, 1-Cyclobutyl-N-((5-(pyridin-4-yl)-2,3-dihydro-1H-inden-4-yl)carbamoyl)-1H-pyrazole-3-sulfonamide] | ≤ 0.5 µM | ≤ 0.5 µM |
